# Results published in publication PMC2763579 (Journal of medicinal chemistry, 2009).
# Entries after “also recorded” stand apart in the source; their conditions may differ.
# System: heat induced HSP70 expression in Jurkat cells
# Assay: Inhibition of heat-induced HSP70 expression, Western blot
# Format: cell-based, human
# Settings: pre-heat treatment 50 μg/ml
row,SMILES,Inhibition of HSP70 induction (in words)
1,O=C(O)COc1cc(O)c2c(=O)c(O)c(-c3ccc(O)c(O)c3)oc2c1 [Compound D9],does not inhibit HSP70; also recorded: showed no ability to inhibit HSP70 induction

# System: HSP27 phosphorylation at Ser78 in HeLa cells
# Assay: Drug-induced HSP27 Ser78 phosphorylation, Western blot
# Format: cell-based, human
# Settings: absence of heat shock, 50 μg/ml 1 h
row,SMILES,Enhancement of HSP27 phosphorylation (in words)
1,COC(=O)COc1cc(-c2oc3cc(O)cc(O)c3c(=O)c2O)ccc1O [Compound D1],did not activate HSP27 phosphorylation
2,COc1cc(-c2oc3cc(O)cc(O)c3c(=O)c2O)ccc1O [Compound D2],did not activate HSP27 phosphorylation
3,COc1cc(O)c2c(=O)c(O)c(-c3ccc(O)c(O)c3)oc2c1 [Compound D7],showed enhancement of HSP27 phosphorylation
4,COC(=O)COc1cc(O)c2c(=O)c(O)c(-c3ccc(O)c(O)c3)oc2c1 [Compound D10],showed enhancement of HSP27 phosphorylation
5,"O=c1c(O)c(-c2ccc(O)c(O)c2)oc2cc(O)cc(O)c12 [Quercetin, reference compound]",enhances HSP27 phosphorylation at Ser78
